The source of these data is US11033539B2, “Compounds of formulas (VII), (VIII), (IX), (XI), (XII), (XIII), and (XIV) as muscarinic receptor 4(M4) antagonists for treating neurological diseases” (Neurocrine Biosciences, Inc., priority 2015, dated 2021).

For one assay, the target named is human M1 receptor (Homo sapiens (Human), UniProt P11229). In words: Radioligand (tritiated N-methylscopolamine) binding assay, M1. The note with it: CHO cell membranes expressing human M1; 1.5 nM tritiated N-methylscopolamine; 90 min, 37° C.; read-out: Ki against M1 receptor (Table 21, M1). Here is the method:
(§1) Binding affinity (Ki) of compounds was measured by inhibition of radioligand binding to membranes from CHO cells expressing human M1, M2, M3, M4 and M5 receptors. Membranes were prepared by nitrogen cavitation and differential centrifugation as previously described (Hoare et al., Mol. Pharmacol. 2003 March; 63(3): 751-65). The radioligand employed was tritiated N-methylscopolamine, used at a concentration of 1.5 nM. A dose-response of twelve concentrations of compound was used, ranging from 10 μM to […]. The assay buffer was 50 mM HEPES, 100 mM NaCl, 5 mM MgCl2, 1 mM ethylenediaminetetraacetic acid, pH-adjusted to pH 7.4. Membranes, radioligand and compound were incubated together for 90 minutes at 37° C., in a total volume of 150 μl in a 96-well plate. Receptor-bound radioligand was then collected by harvesting the assay over glass fiber filters pretreated with polyethylenimine to trap the cell membranes, using rapid vacuum filtration. Harvesting and radioactivity counting was conducted as previously described (see, e.g., Hoare et al., Mol. Pharmacol. 2003 63(3):751-65); Erratum at Mol. Pharmacol. 2005 July; 68(1): 260).

Another assay deals with human M2 receptor (Homo sapiens (Human), UniProt P08172). Description: Radioligand (tritiated N-methylscopolamine) binding assay, M2. The note with it: CHO cell membranes expressing human M2; 1.5 nM tritiated N-methylscopolamine; 90 min, 37° C.; read-out: Ki against M2 receptor (Table 21, M2). On the procedure:
as §1

The target in another assay is human M4 receptor (Homo sapiens (Human), UniProt P08173). In words: Radioligand (tritiated N-methylscopolamine) binding assay, M4. The note with it: Ki against the M4 receptor; membranes from CHO cells expressing human M4; tritiated N-methylscopolamine 1.5 nM; read-out: Ki. Put shortly: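 CHO membranes; 1.5 nM radioligand; 12-point compound dose-response, 10 μM to […]; HEPES/NaCl/MgCl2/EDTA buffer pH 7.4; 90 min, 37 °C. PEI-treated glass fiber filtration, radioactivity counting. Ki from inhibition of binding.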
Chain of human M4 receptor (P08173 whole entry): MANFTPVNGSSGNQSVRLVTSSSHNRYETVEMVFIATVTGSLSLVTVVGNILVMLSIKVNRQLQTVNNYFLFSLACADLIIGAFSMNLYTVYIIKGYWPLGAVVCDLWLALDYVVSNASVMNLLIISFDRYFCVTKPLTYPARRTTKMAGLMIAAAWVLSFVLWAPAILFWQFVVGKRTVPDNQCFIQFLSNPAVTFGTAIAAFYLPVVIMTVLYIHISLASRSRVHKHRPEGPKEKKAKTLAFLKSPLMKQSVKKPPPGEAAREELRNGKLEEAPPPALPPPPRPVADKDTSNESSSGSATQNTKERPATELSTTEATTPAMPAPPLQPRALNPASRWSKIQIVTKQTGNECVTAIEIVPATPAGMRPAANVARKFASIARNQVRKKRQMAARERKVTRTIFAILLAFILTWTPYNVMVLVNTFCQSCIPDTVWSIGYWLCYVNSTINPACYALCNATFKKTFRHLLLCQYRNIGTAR

Chain of human M1 receptor (P11229 whole entry): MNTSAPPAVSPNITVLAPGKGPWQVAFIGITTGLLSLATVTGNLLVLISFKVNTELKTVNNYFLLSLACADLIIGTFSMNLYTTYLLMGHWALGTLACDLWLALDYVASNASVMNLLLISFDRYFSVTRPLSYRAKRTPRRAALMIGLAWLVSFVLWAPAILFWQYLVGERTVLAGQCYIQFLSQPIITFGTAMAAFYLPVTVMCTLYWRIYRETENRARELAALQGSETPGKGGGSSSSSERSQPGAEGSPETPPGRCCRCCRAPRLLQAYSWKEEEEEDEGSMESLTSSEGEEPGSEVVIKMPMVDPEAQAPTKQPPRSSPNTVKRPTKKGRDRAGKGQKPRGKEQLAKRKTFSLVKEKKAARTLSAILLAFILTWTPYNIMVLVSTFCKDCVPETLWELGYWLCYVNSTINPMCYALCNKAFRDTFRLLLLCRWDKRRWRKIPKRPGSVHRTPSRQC
Chain of human M2 receptor (P08172 whole entry): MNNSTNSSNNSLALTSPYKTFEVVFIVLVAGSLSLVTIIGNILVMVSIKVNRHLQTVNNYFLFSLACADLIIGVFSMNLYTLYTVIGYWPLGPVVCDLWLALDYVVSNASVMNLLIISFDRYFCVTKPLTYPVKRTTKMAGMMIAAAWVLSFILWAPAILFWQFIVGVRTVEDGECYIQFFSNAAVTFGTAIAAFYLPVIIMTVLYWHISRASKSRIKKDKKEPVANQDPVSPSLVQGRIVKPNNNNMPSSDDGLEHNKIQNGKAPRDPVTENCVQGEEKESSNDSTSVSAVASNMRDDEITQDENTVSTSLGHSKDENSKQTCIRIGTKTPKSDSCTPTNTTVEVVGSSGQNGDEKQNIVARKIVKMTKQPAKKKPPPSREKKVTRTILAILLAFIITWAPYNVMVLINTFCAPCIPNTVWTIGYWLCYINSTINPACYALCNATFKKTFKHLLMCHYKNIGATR

With `O=C(NCCC1CCN(Cc2ccccc2)CC1)c1ccc(-c2ccc(OC(F)(F)F)cc2)cc1` [9-70, N-[2-(1-benzylpiperidin-4-yl)ethyl]-4-[4-(trifluoromethoxy)phenyl]benzamide], the Ki at human M1 receptor and at human M2 receptor was 100 to 1000 nM in each case.

As for `O=C(NCC(O)C1CCN(Cc2ccccc2)CC1)C1CCN(c2ccc(OC(F)(F)F)cc2)CC1` (centres unmarked) [9-71, N-[2-(1-benzylpiperidin-4-yl)-2-hydroxyethyl]-1-[4-(trifluoromethoxy)phenyl]piperidine-4-carboxamide], the Ki at human M2 receptor was in the range of 100 to 1000 nM. `O=C(NCCC1(O)CCN(Cc2ccccc2)CC1)C1CCN(c2ccc(OC(F)(F)F)c(F)c2)CC1` [9-72, N-[2-(1-benzyl-4-hydroxypiperidin-4-yl)ethyl]-1-[3-fluoro-4-(trifluoromethoxy)phenyl]piperidine-4-carboxamide]: the inhibition constant (Ki) on human M1 receptor and at human M2 receptor was 100 to 1000 nM throughout. For `CC1CN(c2ccc(OC(F)(F)F)cc2)CCC1C(=O)NCCC1CCN(Cc2ccccc2)CC1` (centres unmarked) [10-42, N-[2-(1-benzylpiperidin-4-yl)ethyl]-3-methyl-1-[4-(trifluoromethoxy)phenyl]piperidine-4-carboxamide], the Ki at human M1 receptor and at human M2 receptor was 100 to 1000 nM in each case.

On to `O=C(NCCC1CCN(Cc2ccccc2)CC1)C1CCN(c2cc(F)c(F)c(F)c2)CC1` [10-43, N-[2-(1-benzylpiperidin-4-yl)ethyl]-1-(3,4,5-trifluorophenyl)piperidine-4-carboxamide], for which the Ki on human M2 receptor was 100 to 1000 nM. Same read-out and setting: next, `O=C(NCCC1CCN(Cc2ccccc2)CC1)C1CCN(c2ccc(OC(F)(F)F)c(F)c2)CC1` [10-44, N-[2-(1-benzylpiperidin-4-yl)ethyl]-1-[3-fluoro-4-(trifluoromethoxy)phenyl]piperidine-4-carboxamide]: 100 to 1000 nM. `CNC(=O)c1cnc(N2CCN(C(=O)NCCC3CCN(Cc4ccccc4)CC3)[C@H](C)C2)nc1` [27-10]: the inhibitory constant (Ki) on human M4 receptor was in the range of 100 to 1000 nM.

Turning to `Cc1cc(C(=O)NCC(C)C)nc(N2CCN(C(=O)NCCC3CCN(Cc4ccccc4)CC3)[C@H](C)C2)n1` [27-11], the Ki on human M4 receptor was 10 to 100 nM.

For `CC(C)CNC(=O)c1cnc(N2CCN(C(=O)NCCC3CCN(Cc4ccccc4)CC3)[C@H](C)C2)nc1` [27-12], the inhibitory constant (Ki) at human M4 receptor fell in the range of 10 to 100 nM. In the case of `Cc1cc(C(=O)NC(C)C)nc(N2CCN(C(=O)NCCC3CCN(Cc4ccccc4)CC3)[C@H](C)C2)n1` [27-13], the Ki on human M4 receptor lay in the range of 100 to 1000 nM. Same read-out and setting: in the case of `Cc1cc(C(=O)NC2CC2)nc(N2CCN(C(=O)NCCC3CCN(Cc4ccccc4)CC3)[C@H](C)C2)n1` [27-14] it was 100 to 1000 nM; in that of `CC(C)NC(=O)c1cnc(N2CCN(C(=O)NCCC3CCN(Cc4ccccc4)CC3)[C@H](C)C2)nc1` [27-15], 100 to 1000 nM. The same measure, in the same setting: next, `CCNC(=O)c1cnc(N2CCN(C(=O)NCCC3CCN(Cc4ccccc4)CC3)[C@H](C)C2)nc1` [27-16]: 100 to 1000 nM. Still for that read-out and setting: next, `C[C@@H]1CN(c2ncc(C(=O)N(C)C)cn2)CCN1C(=O)NCCC1CCN(Cc2ccccc2)CC1` [27-17]: 100 to 1000 nM; `CCN(C)C(=O)c1cc(C)nc(N2CCN(C(=O)NCCC3CCN(Cc4ccccc4)CC3)[C@H](C)C2)n1` [27-18]: 100 to 1000 nM; `CCNC(=O)c1cc(C)nc(N2CCN(C(=O)NCCC3CCN(Cc4ccccc4)CC3)[C@H](C)C2)n1` [27-19]: 100 to 1000 nM. For the molecule “N-(2-{1-[(4-hydroxyphenyl)methyl]piperidin-4-yl}ethyl)-4-phenoxybenzamide [11-10]”, the inhibitory constant (Ki) on human M4 receptor lay within 100 to 1000 nM. The same measure, in the same setting: next, “N-{2-[1-(2,2-dimethylpropyl)piperidin-4-yl]ethyl}-1-[4-(trifluoromethoxy)phenyl]piperidine-4-carboxamide [11-27]”: 100 to 1000 nM; “N-{2-[1-(2-hydroxy-1-phenylethyl)piperidin-4-yl]ethyl}-1-[4-(trifluoromethoxy)phenyl]piperidine-4-carboxamide [11-12]”: 100 to 1000 nM; “N-{2-[1-(3-methylbutyl)piperidin-4-yl]ethyl}-1-[4-(trifluoromethoxy)phenyl]piperidine-4-carboxamide [11-19]”: 100 to 1000 nM.
